In the assay the target is CDK2/Cyclin E1 (Homo sapiens, UniProt P24941). As to the kind of experiment: CDK2/Cyclin E1 Caliper LabChip EZ Reader mobility shift assay. Conditions: read-out: Caliper Assay (CDK2/CCNE1): IC50. Format: biochemical. Details: purchased Eurofins 14-475. In a few lines: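 Substrate-to-product conversion of fluorescent peptide (1.5 μM final) read by capillary electrophoresis after 100 min reaction, EDTA-quenched. Enzyme (2.5 nM final) and ATP (100 μM final) were preincubated 30 min with inhibitor dilutions first. % activity vs concentration fitted four-parameter for IC50.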

For the molecule `CC1(C)C[C@@H]1C(=O)N1CC2(CN(C(=O)c3cnn(Cc4ccccc4)c3)C[C@H]2C(=O)NCc2nc3ccccc3o2)C1` [I-230], the IC50 fell in the range of 1 to 10 µM. Under `CNC(=O)[C@@H](NC(=O)[C@@H]1CN(C(=O)c2scnc2C(C)(C)C)CC12CN(C(=O)[C@H]1CC1(C)C)C2)[C@@H](C)OCC1CCCCC1` [I-231A] stands 1 to 10 µM; under `CNC(=O)[C@@H](NC(=O)[C@H]1CN(C(=O)c2scnc2C(C)(C)C)CC12CN(C(=O)[C@H]1CC1(C)C)C2)[C@@H](C)OCC1CCCCC1` [I-231B], > 10 µM; under `CNC(=O)[C@@H](NC(=O)[C@@H]1CN(C(=O)c2sc(Cl)nc2Cl)CC12CN(C(=O)[C@H]1CC1(C)C)C2)[C@@H](C)OCC1CCCCC1` [I-232A], 0.01 to 0.1 µM. The value for `CNC(=O)[C@@H](NC(=O)[C@H]1CN(C(=O)c2sc(Cl)nc2Cl)CC12CN(C(=O)[C@H]1CC1(C)C)C2)[C@@H](C)OCC1CCCCC1` [I-232B] was 1 to 10 µM; that for `CC(C)O[C@H]1C[C@H](NC(=O)[C@@H]2CN(C(=O)c3cnn(Cc4ccccc4)c3)CC23CN(C(=O)[C@H]2CC2(C)C)C3)C1` [I-233] was > 10 µM; that for `CC1(C)C[C@@H]1C(=O)N1CC2(CN(C(=O)c3cnn(Cc4ccccc4)c3)C[C@H]2C(=O)N2CC[C@@H](OCC3CCCCC3)C2)C1` [I-235] was 0.1 to 1 µM. Under `CC1(C)C[C@@H]1C(=O)N1CC2(CN(C(=O)c3cnn(Cc4ccccc4)c3)C[C@H]2C(=O)N2CCC[C@H](OCC3CCCCC3)C2)C1` [I-236] stands 1 to 10 µM.

Consider `CC1(C)C[C@@H]1C(=O)N1CC2(CN(C(=O)c3cnn(Cc4ccccc4)c3)C[C@H]2C(=O)N2CCN(CC3CCCCC3)CC2)C1` [I-237], for which the IC50 was 0.1 to 1 µM. Take `C[C@@H](OCC1CCCCC1)[C@H](NC(=O)[C@@H]1CN(C(=O)c2cnn(Cc3ccccc3)c2)CC12CN(C(=O)[C@H]1CC1(C)C)C2)C(=O)N1CCC[C@@H]1CN` [I-238]: the IC50 lay within 0.01 to 0.1 µM. The value for `C[C@@H](OCC1CCCCC1)[C@H](NC(=O)[C@@H]1CN(C(=O)c2cnn(Cc3ccccc3)c2)CC12CN(C(=O)[C@H]1CC1(C)C)C2)C(=O)N1CC(CN)C1` [I-239] was ≤ 0.01 µM; that for `C[C@@H](OCC1CCCCC1)[C@H](NC(=O)[C@@H]1CN(C(=O)c2cnn(Cc3ccccc3)c2)CC12CN(C(=O)[C@H]1CC1(C)C)C2)C(=O)N1CC2(CNC2)C1` [I-240] was ≤ 0.01 µM.

In the case of `Cc1n[nH]c(C(=O)N2C[C@@H](C(=O)N[C@H](C(=O)N3CCCCC3)[C@@H](C)OCC3CCCCC3)C3(C2)CN(C(=O)[C@H]2CC2(C)C)C3)n1` [I-241], the IC50 lay within 1 to 10 µM.

As to `C[C@@H](OCC1CCCCC1)[C@H](NC(=O)C1CN(C(=O)C2CCC(=O)N(C)C2)CC12CN(C(=O)[C@H]1CC1(C)C)C2)C(=O)N1CCCCC1` (stereo partly shown) [I-242], the IC50 lay within 1 to 10 µM.

For the molecule `CC1(C)C[C@@H]1C(=O)N1CC2(CN(C(=O)c3cnn(Cc4ccccc4)c3)C[C@H]2C(=O)N[C@H]2CCN(C3CC3)C2=O)C1` [I-243], the IC50 was > 10 µM.

Turning to `CNC(=O)[C@@H](NC(=O)[C@@H]1CN(C(=O)c2cnn(Cc3ccccc3)c2)CC12CN(C(=O)[C@H]1CC1(C)C)C2)[C@@H](C)OCc1ccncc1` [I-244], the IC50 is 1 to 10 µM. Regarding `CC1(C)C[C@@H]1C(=O)N1CC2(CN(C(=O)c3cnn(Cc4ccccc4)c3)CC2C(=O)NC2CNCCOC2)C1` (stereo partly shown) [I-245], the IC50 is 1 to 10 µM. For the molecule `CNC(=O)[C@@H](NC(=O)[C@@H]1CN(C(=O)c2nncs2)CC12CN(C(=O)[C@H]1CC1(C)C)C2)[C@@H](C)OCC1CCCCC1` [I-246], the IC50 fell in the range of 0.1 to 1 µM. The value for `CNC(=O)[C@@H](NC(=O)[C@@H]1CN(C(=O)c2cnn(Cc3ccccc3)c2)CC12CN(C(=O)[C@H]1CC1(C)C)C2)[C@@H](C)OCc1cccnc1` [I-247] was 0.1 to 1 µM; that for `CO[C@@H]1CC[C@H](NC(=O)[C@@H]2CN(C(=O)c3cnn(Cc4ccccc4)c3)CC23CN(C(=O)[C@H]2CC2(C)C)C3)C1` [I-248] was > 10 µM; that for `CNC(=O)[C@@H](NC(=O)[C@@H]1CN(C(=O)c2cnn(Cc3ccccc3)c2)CC12CN(C(=O)[C@H]1CC1(C)C)C2)[C@@H](C)OCC1C[C@@H](C)C[C@@H](C)C1` (stereo partly shown) [I-249] was 0.01 to 0.1 µM.

Take `COCC1(NC(=O)[C@H]2CN(C(=O)c3cnn(Cc4ccccc4)c3)CC23CN(C(=O)[C@H]2CC2(C)C)C3)CC1` [I-250]: the IC50 was > 10 µM.

Take `CNC(=O)[C@@H](NC(=O)[C@@H]1CN(C(=O)c2cnn(Cc3ccccc3)c2)CC12CN(C(=O)[C@H]1CC1(C)C)C2)[C@@H](C)OCc1ccccc1O` [I-251]: the IC50 lay within 0.1 to 1 µM. As to `CC1(C)C[C@@H]1C(=O)N1CC2(CN(C(=O)c3cnn(Cc4ccccc4)c3)C[C@H]2C(=O)N2CCC[C@@H](OCC3CCCCC3)C2)C1` [I-254], the IC50 is > 10 µM. As to `CC1(C)C[C@@H]1C(=O)N1CC2(CN(C(=O)c3cnn(Cc4ccccc4)c3)C[C@H]2C(=O)N2CCO[C@H](Cc3ccccc3)C2)C1` [I-255], the IC50 is > 10 µM.

In the case of `CNC(=O)[C@@H](NC(=O)C1CN(C(=O)c2cnn(Cc3ccccc3)c2)CC12CN(C(=O)[C@H]1CC1(C)C)C2)[C@@H](C)OCc1ccccn1` (stereo partly shown) [I-257], the IC50 was in the range of 1 to 10 µM. On to `CN1CC[C@@H](NC(=O)[C@@H]2CN(C(=O)c3cnn(Cc4ccccc4)c3)CC23CN(C(=O)[C@H]2CC2(C)C)C3)C1=O` [I-258], for which the IC50 was > 10 µM. Under `CC1(C)C[C@@H]1C(=O)N1CC2(CN(C(=O)c3cnn(Cc4ccccc4)c3)C[C@H]2C(=O)N[C@@H]2CCN(C3CC3)C2=O)C1` [I-259] stands > 10 µM; under `CNC(=O)[C@H](CO)NC(=O)C1CN(C(=O)c2cnn(Cc3ccccc3)c2)CC12CN(C(=O)[C@H]1CC1(C)C)C2` (stereo partly shown) [I-260], > 10 µM; under `CNC(=O)[C@@H](CO)NC(=O)C1CN(C(=O)c2cnn(Cc3ccccc3)c2)CC12CN(C(=O)[C@H]1CC1(C)C)C2` (stereo partly shown) [I-261], > 10 µM. The value for `CNC(=O)[C@@H](NC(=O)[C@@H]1CN(C(=O)c2cnn(Cc3ccccc3)c2)CC12CN(C(=O)[C@H]1CC1(C)C)C2)[C@@H](C)OCc1cccc(O)c1` [I-262] was 0.1 to 1 µM; that for `CNC(=O)[C@@H](NC(=O)[C@@H]1CN(C(=O)c2cnn(Cc3ccccc3)c2)CC12CN(C(=O)[C@H]1CC1(C)C)C2)[C@@H](C)OCc1ccc(Br)cc1` [I-263] was ≤ 0.01 µM.

With `Cc1cc(C(=O)N2CC(C(=O)N[C@H](C(=O)N3CCCCC3)[C@@H](C)OCC3CCCCC3)C3(C2)CN(C(=O)[C@H]2CC2(C)C)C3)[nH]n1` (stereo partly shown) [I-264], the IC50 lay within 1 to 10 µM. Under `C[C@@H](OCC1CCCCC1)[C@H](NC(=O)C1CN(C(=O)C2CCC(=O)NC2)CC12CN(C(=O)[C@H]1CC1(C)C)C2)C(=O)N1CCCCC1` (stereo partly shown) [I-265] stands 1 to 10 µM. The value for `CNC(=O)[C@@H](NC(=O)[C@@H]1CN(C(=O)c2cnn(Cc3ccccc3)c2)CC12CN(C(=O)[C@H]1CC1(C)C)C2)[C@@H](C)N(C)CC1CCCCC1` [I-266] was 1 to 10 µM; that for `CNC(=O)[C@@H](NC(=O)[C@@H]1CN(C(=O)c2cnn(Cc3ccccc3)c2)CC12CN(C(=O)NC(C)C)C2)[C@@H](C)OCC1CCCCC1` [I-267] was 1 to 10 µM; that for `CNC(=O)[C@@H](NC(=O)[C@@H]1CN(C(=O)c2cnn(Cc3ccccc3)c2)CC12CN(C(=O)NC1CC1)C2)[C@@H](C)OCC1CCCCC1` [I-268, (S)-6-(1-benzyl-1H-pyrazole-4-carbonyl)-N8-((2S,3R)-3-(cyclohexylmethoxy)-1-(methylamino)-1-oxobutan-2-yl)-N2-cyclopropyl-2,6-diazaspiro[3.4]octane-2,8-dicarboxamide] was > 10 µM.
